Laboratory results published in PubChem BioAssay AID2060604 (Molecular Pharmacology Branch, DTP, NCI, 2025).

System: 379773-124-R-J2-PDC complex spheroids, viability % test/control
Assay: Anticancer human tumor 379773-124-R-J2-PDC patient-derived endometrial carcinoma cell line growth inhibition [CLK]
Details: for IC50: curve of first compound; for viability, T/C: stronger effect = lower value
Excerpt: A high-throughput screen of multi-cell type tumor spheroids was designed to identify active combinations of […] and targeted small molecules. Complex spheroids include a stromal component modeled by human endothelial cells (HUVEC) and fibroblasts modeled by human mesenchymal stem cells (MSCs). The concentration ranges selected for each drug and investigational agent were based upon clinically achievable concentrations if the clinical Cmax of the agent was known.
Compounds. The drugs and investigational agents: cirtuvivint (SM08502; NSC835563), CC-671 (NSC850746), vemurafenib (NSC761431), tapotoclax (NSC804041), sotorasib (NSC818433), adagrasib (NSC831453), MRTX-1133 (NSC836407), BAY2416964 (NSC825713), copanlisib (NSC816437), inavolisib (NSC800729), abemaciclib (NSC768073), osimertinib (NSC779217), entinostat (NSC756642), eltanexor (KPT-8602, NSC794443), venetoclax (NSC766270), ceralasertib (NSC777638), bortezomib (NSC756655), olaparib (NSC753686), talazoparib (NSC767125), alisertib (NSC759677), peposertib (NSC802822), gemcitabine (NSC613327), 5-fluorouracil (NSC19893), SN-38 (NSC673596), oxaliplatin (NSC266046), paclitaxel (NSC125973), and doxorubicin (NSC123127), were obtained from the National Cancer Institute (NCI) Developmental Therapeutics Program Chemical Repository. The FDA-approved anticancer drug set is available from the Developmental Therapeutics Program at https://dtp.cancer.gov/organization/dscb/obtaining/available plates.htm. […] The stock solutions were prepared in dimethyl sulfoxide (DMSO, Sigma-Aldrich, St. Louis, MO, cat. D2650), except for the platinum complexes which were prepared in saline (Quality Biological, Gaithersburg, MD, cat. 114-055-101), at 800-fold the tested concentration and stored at -70 degrees C prior to their use. All drugs and investigational agents were tested over a range starting from a high concentration at or near the clinical Cmax and decreasing in half-log increments. If the clinical Cmax for an agent had not been determined, the highest concentration tested was 10 microM.
Cell Culture. All cells were maintained in an incubator at 37 degrees C and 5% CO2 with 95% humidity. The PDC lines were cultured according to standard operating procedures established by the NCI PDMR. Briefly, all PDCs were thawed and cultured in Matrigel-coated flasks prepared with a working solution of 1X Ham's F-12 nutrient mix, without supplementation (Invitrogen, Waltham, MA, cat. 11765054), 100 U/mL penicillin-streptomycin (Invitrogen, cat. 15140122), and 2.5% Matrigel (Corning Inc., Corning, NY, cat. 354248) for the first three passages. The 947758-054-R-J2-PDC line was cultured in 6B/Colon 1A media, which includes advanced DMEM/F-12 (Thermo Fisher Scientific, cat. 12634028), 10 mM HEPES (Thermo Fisher Scientific, cat. 15630080), 1X GlutaMAX supplement (Thermo Fisher Scientific, cat. 35050061), 0.1 mg/mL primocin (InvivoGen, cat. ant-pm-2), 10% defined fetal bovine serum, heat inactivated (HyClone Laboratories Inc., cat. SH30070.03HI), 1.25 mM N-Acetyl-L-cysteine (Sigma-Aldrich, cat. A9165), 10 mM nicotinamide (Sigma-Aldrich, cat. N0636), 1X B-27 supplement (Thermo Fisher Scientific, cat. 17504044), 1X N-2 supplement (Thermo Fisher Scientific, cat. 17502048), and 10 microM Y-27632 dihydrochloride (Tocris Bioscience, cat. 1254). The 876862-298-R-J1-PDC was cultured in 6E media, which includes all 6B/Colon 1A media components plus 50% L-WRN conditioned media (ATCC, cat. CRL-3276), 50 ng/mL recombinant human EGF recombinant protein (hEGF; Thermo Fisher Scientific, cat. PHG0311), 10 ng/mL recombinant human fibroblast growth factor 10 (hGFG-10; PeproTech, cat. 100-26), 1 ng/mL recombinant human fibroblast growth factor 2 (hFGF-2; PeproTech, cat. 100-18B), and 1 µM prostaglandin E2 (PGE2; Tocris, cat. 2296). The 227483-062-R1-J1-PDC line was cultured in Panc media, containing all 6E components except hFGF-2, with the addition of 500 nM SB-431542 (Selleckchem, cat. S1067) and 10 nM gastrin (Tocris, cat. 3006). […]

[1] = second compound 0.0316 µM, first compound 0.0316 µM
[2] = second compound 0.0316 µM, first compound 0.1 µM
[3] = second compound 0.0316 µM, first compound 0.316 µM
[4] = second compound 0.0316 µM, first compound 1 µM
[5] = second compound 0.0316 µM, first compound 3.16 µM
[6] = second compound 0.0316 µM, first compound 10 µM
[7] = second compound 0.1 µM, first compound 0.0316 µM
[8] = second compound 0.1 µM, first compound 0.1 µM
[9] = second compound 0.1 µM, first compound 0.316 µM
[10] = second compound 0.1 µM, first compound 1 µM
[11] = second compound 0.1 µM, first compound 3.16 µM
[12] = second compound 0.1 µM, first compound 10 µM
[13] = second compound 0.316 µM, first compound 0.0316 µM
[14] = second compound 0.316 µM, first compound 0.1 µM
[15] = second compound 0.316 µM, first compound 0.316 µM
[16] = second compound 0.316 µM, first compound 1 µM
[17] = second compound 0.316 µM, first compound 3.16 µM
[18] = second compound 0.316 µM, first compound 10 µM
[19] = second compound 1 µM, first compound 0.0316 µM
[20] = second compound 1 µM, first compound 0.1 µM
[21] = second compound 1 µM, first compound 0.316 µM
[22] = second compound 1 µM, first compound 1 µM
[23] = second compound 1 µM, first compound 3.16 µM
[24] = second compound 1 µM, first compound 10 µM
[25] = second compound 3.16 µM, first compound 0.0316 µM
[26] = second compound 3.16 µM, first compound 0.1 µM
[27] = second compound 3.16 µM, first compound 0.316 µM
[28] = second compound 3.16 µM, first compound 1 µM
[29] = second compound 3.16 µM, first compound 3.16 µM
[30] = second compound 3.16 µM, first compound 10 µM
[31] = second compound 10 µM, first compound 0.0316 µM
[32] = second compound 10 µM, first compound 0.1 µM
[33] = second compound 10 µM, first compound 0.316 µM
[34] = second compound 10 µM, first compound 1 µM
[35] = second compound 10 µM, first compound 3.16 µM
[36] = second compound 10 µM, first compound 10 µM
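Also: compound exposure lasted seven days before the viability readout.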
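For viability, T/C in this document: 100% = DMSO vehicle control wells.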

C#Cc1c(F)ccc2cc(O)cc(-c3ncc4c(N5CC6CCC(C5)N6)nc(OCC56CCCN5CC(F)C6)nc4c3F)c12 (stereo unspecified) + CN1CCN(c2cc(C(=O)Nc3cc4cc(-c5cnn(C)c5)ccc4cn3)ccn2)CC1
IC50 (second compound 0.0316 µM): > 10000 nM
IC50 (second compound 0.1 µM): > 10000 nM
IC50 (second compound 0.316 µM): < 31.6 nM
IC50 (second compound 1 µM): < 31.6 nM
IC50 (second compound 3.16 µM): < 31.6 nM
IC50 (second compound 10 µM): < 31.6 nM
viability, T/C [1]: 88.4%
viability, T/C [2]: 91.4%
viability, T/C [3]: 93%
viability, T/C [4]: 87.5%
viability, T/C [5]: 103%
viability, T/C [6]: 99.3%
viability, T/C [7]: 89.7%
viability, T/C [8]: 84.5%
viability, T/C [9]: 75.7%
viability, T/C [10]: 77%
viability, T/C [11]: 99.1%
viability, T/C [12]: 72.8%
viability, T/C [13]: 35.7%
viability, T/C [14]: 27.4%
viability, T/C [15]: 35.1%
viability, T/C [16]: 33.3%
viability, T/C [17]: 32.5%
viability, T/C [18]: 28.4%
viability, T/C [19]: 0.19%
viability, T/C [20]: 0.22%
viability, T/C [21]: 0.24%
viability, T/C [22]: 1.34%
viability, T/C [23]: 0.78%
viability, T/C [24]: 0.14%
viability, T/C [25]: 0.14%
viability, T/C [26]: 2.72%
viability, T/C [27]: 0.76%
viability, T/C [28]: 2.34%
viability, T/C [29]: 1.68%
viability, T/C [30]: 1.37%
viability, T/C [31]: 2.32%
viability, T/C [32]: 0.23%
viability, T/C [33]: 0.32%
viability, T/C [34]: 3.73%
viability, T/C [35]: 1.56%
viability, T/C [36]: 0.31%

C=C(F)C(=O)N1CCN(c2nc(OCC3CCCN3C)nc3c2CCN(c2cccc4cccc(Cl)c24)C3)CC1CC#N (stereo unspecified) + CN1CCN(c2cc(C(=O)Nc3cc4cc(-c5cnn(C)c5)ccc4cn3)ccn2)CC1
IC50 (second compound 0.0316 µM): 4620 nM
IC50 (second compound 0.1 µM): 2700 nM
IC50 (second compound 0.316 µM): < 31.6 nM
IC50 (second compound 1 µM): < 31.6 nM
IC50 (second compound 3.16 µM): < 31.6 nM
IC50 (second compound 10 µM): < 31.6 nM
viability, T/C [1]: 87.9%
viability, T/C [2]: 86%
viability, T/C [3]: 86%
viability, T/C [4]: 88.7%
viability, T/C [5]: 73.9%
viability, T/C [6]: 1.28%
viability, T/C [7]: 85.8%
viability, T/C [8]: 72.8%
viability, T/C [9]: 90.9%
viability, T/C [10]: 79.5%
viability, T/C [11]: 45.3%
viability, T/C [12]: 1%
viability, T/C [13]: 28.3%
viability, T/C [14]: 36.7%
viability, T/C [15]: 31.8%
viability, T/C [16]: 37.5%
viability, T/C [17]: 13.6%
viability, T/C [18]: 0.93%
viability, T/C [19]: 0.49%
viability, T/C [20]: 0.17%
viability, T/C [21]: 0.3%
viability, T/C [22]: 1.49%
viability, T/C [23]: 0.88%
viability, T/C [24]: 0.75%
viability, T/C [25]: 1.35%
viability, T/C [26]: 0.14%
viability, T/C [27]: 2.05%
viability, T/C [28]: 0.84%
viability, T/C [29]: 1.24%
viability, T/C [30]: 0.11%
viability, T/C [31]: 0.66%
viability, T/C [32]: 1.65%
viability, T/C [33]: 0.21%
viability, T/C [34]: 0.22%
viability, T/C [35]: 0.2%
viability, T/C [36]: 0.65%

CC(CO)NC(=O)c1cc(-c2ccc(Cl)cc2)nn(-c2cnn(C)c2)c1=O (stereo unspecified) + CN1CCN(c2cc(C(=O)Nc3cc4cc(-c5cnn(C)c5)ccc4cn3)ccn2)CC1
IC50 (second compound 0.0316 µM): > 10000 nM
IC50 (second compound 0.1 µM): > 10000 nM
IC50 (second compound 0.316 µM): < 31.6 nM
IC50 (second compound 1 µM): < 31.6 nM
IC50 (second compound 3.16 µM): < 31.6 nM
IC50 (second compound 10 µM): < 31.6 nM
viability, T/C [1]: 100%
viability, T/C [2]: 86.8%
viability, T/C [3]: 90.3%
viability, T/C [4]: 102%
viability, T/C [5]: 102%
viability, T/C [6]: 66.5%
viability, T/C [7]: 96.9%
viability, T/C [8]: 86.3%
viability, T/C [9]: 79.8%
viability, T/C [10]: 105%
viability, T/C [11]: 75.1%
viability, T/C [12]: 52.9%
viability, T/C [13]: 24.6%
viability, T/C [14]: 27.9%
viability, T/C [15]: 33.9%
viability, T/C [16]: 32.1%
viability, T/C [17]: 32.6%
viability, T/C [18]: 24.4%
viability, T/C [19]: 0.57%
viability, T/C [20]: 0.17%
viability, T/C [21]: 0.46%
viability, T/C [22]: 0.65%
viability, T/C [23]: 0.68%
viability, T/C [24]: 0.88%
viability, T/C [25]: 1.45%
viability, T/C [26]: 0.87%
viability, T/C [27]: 0.16%
viability, T/C [28]: 2.5%
viability, T/C [29]: 1.79%
viability, T/C [30]: 1.37%
viability, T/C [31]: 0.55%
viability, T/C [32]: 0.23%
viability, T/C [33]: 0.2%
viability, T/C [34]: 0.85%
viability, T/C [35]: 0.23%
viability, T/C [36]: 0.65%
